Laboratory results as given in publication PMC4442108, “Preclinical Validation of the Heparin-Reactive Peptide p5+14 as a Molecular Imaging Agent for Visceral Amyloidosis” (Molecules, 2015).
Where no end group is shown, it is not given here. [ ]: non-standard residue; d: D form. Tyr(3-I) = N[C@@H](Cc1ccc(O)c(I)c1)C(=O)O

Columns and labels:
[1] = Biodistribution, SPECT/CT and micro-autoradiography of 125I-p5+14 in healthy wild type mice; format: in vivo, mouse (WT)
Method: For serial SPECT/CT imaging in cohorts (n = 3) of AA and healthy wild type (WT) mice, peptide p5+14 (100 µg) was radioiodinated with ~4 mCi of ^125I (Perkin Elmer, Waltham, MA, USA), using 20 µg chloramine T as the oxidizing agent. After quenching the reaction with 20 µg sodium metabisulfite, the radiolabeled peptide was diluted into 0.1% sterile gelatin in PBS and free radioiodide removed by size exclusion chromatography on a 5 mL PD10 (GE Healthcare) solid phase equilibrated with 0.1% gelatin/PBS. Fractions 0f 200 µL were collected and those containing the maximal radioactivity (indicative of ^125I-p5+14) were pooled, and the product’s radiochemical purity was established by SDS polyacrylamide gel electrophoresis (PAGE) analyzed by phosphor imaging (Cyclone Storage Phosphor System, Perkin Elmer, Shelton, CT, USA).
Imaging was performed as described. Briefly, WT or AA amyloid mice (n = 3) were injected with ~3 µg of ^125I-p5+14, 125 µCi (specific activity ~40 µCi/µg) in the lateral tail vein. After the appropriate uptake time (1, 4, 24, and 48 h), mice were euthanized by isoflurane inhalation overdose. SPECT images were acquired using an Inveon trimodality imaging platform (Siemens Preclinical Solution, Knoxville, TN, USA; [64]) running Inveon Acquisition Workplace software (ver. 2.0). Low energy (^125I; 25–45 keV) gamma photons were acquired at each of 60, 16-sec projections with 90 mm of bed travel. A 1 mm-diameter, 5-pinhole (Mouse Whole Body) collimator was used at 30 mm from the center of the field of view. […]
Samples of liver, spleen, pancreas, kidneys, small and large intestines, stomach and heart were harvested post mortem from every mouse undergoing imaging with ^125I-p5+14 [45]. A sample of each was placed into a tared, plastic vial, weighed and the ^125I radioactivity measured using an automated Wizard 3 gamma counter (1480 Wallac Gamma Counter, Perkin Elmer). The biodistribution data were expressed as % injected dose/g tissue (%ID/g). […]

[2] = target: T1, human ATTR amyloid extract (Homo sapiens, UniProt P02766); assay: Peptide ex vivo amyloid binding assay (pull-down), ATTR extract; settings: ATTR heart extract; ~5 ng 125I-p5+14, 25 µL of 1 mg/mL extract, PBST, 1 h RT, pellet vs supernatant CPM; N = 2
T1 construct: as well as one cardiac ATTR extract, were analyzed in this assay; from tissue; host or cells: human heart, water flotation extract

whole-body retention half-life ([1]; WT mice, iv ~3 µg 125I-p5+14, gamma counting up to 48 h pi, exponential fit, n = 3 per time point): ~ 1.5 h | tissue uptake at 2 h ([1]; mouse, in vivo, iv, 3 ug, healthy mice, 2 h pi, read-out: retention of radioactivity in any organ): < 0.6 %ID/g | % Bound (mean ± SD) [2]: 79.93 ± 1.23%
Substance: GGG[Tyr(3-I)]SKAQKAQAKQAKQAQKAQKAQAKQAKQAQKAQKAQAKQAKQ [125I-p5+14]
micro-autoradiographic distribution of radiolabeled peptide in tissues ([1]; WT mice, 1 h pi, 6 µm tissue sections): not retained by any cells or macroscopic structures in healthy tissues
